One assay concerns the target T1, Axl (Homo sapiens, UniProt P30530).
T1 construct: purchased Life Technologies
T1 sequence (P30530 26-894): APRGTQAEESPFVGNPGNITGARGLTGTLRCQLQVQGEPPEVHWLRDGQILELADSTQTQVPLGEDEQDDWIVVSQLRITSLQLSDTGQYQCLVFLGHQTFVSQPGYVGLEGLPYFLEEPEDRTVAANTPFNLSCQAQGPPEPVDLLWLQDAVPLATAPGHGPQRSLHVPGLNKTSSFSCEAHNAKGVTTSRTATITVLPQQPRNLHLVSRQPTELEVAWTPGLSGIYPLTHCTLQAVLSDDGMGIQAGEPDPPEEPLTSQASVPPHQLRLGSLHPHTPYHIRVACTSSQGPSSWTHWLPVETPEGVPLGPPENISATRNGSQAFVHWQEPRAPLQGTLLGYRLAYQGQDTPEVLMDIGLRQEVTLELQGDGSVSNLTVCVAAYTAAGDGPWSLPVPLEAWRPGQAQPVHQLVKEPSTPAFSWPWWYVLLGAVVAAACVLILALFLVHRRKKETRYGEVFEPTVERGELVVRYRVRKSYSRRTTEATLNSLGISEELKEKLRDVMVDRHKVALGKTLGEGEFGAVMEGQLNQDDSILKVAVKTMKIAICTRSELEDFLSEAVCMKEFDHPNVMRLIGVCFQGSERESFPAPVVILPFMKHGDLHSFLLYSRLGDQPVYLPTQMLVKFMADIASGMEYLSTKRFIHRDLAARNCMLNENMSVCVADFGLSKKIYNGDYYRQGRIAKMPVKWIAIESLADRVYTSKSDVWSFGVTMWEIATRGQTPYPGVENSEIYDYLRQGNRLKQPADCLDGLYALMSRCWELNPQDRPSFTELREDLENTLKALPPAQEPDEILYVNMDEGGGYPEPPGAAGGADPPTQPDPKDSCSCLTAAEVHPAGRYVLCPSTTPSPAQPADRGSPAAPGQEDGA
Kind of assay: LanthaScreen Eu kinase binding assay, Axl. As to conditions: Tracer 236. As for the experimental part:
(§1) LanthaScreen® Eu Kinase Binding assays were conducted at Life Technologies using the manufacturer's specifications for each kinase indicated.
(§2) Briefly, the principle behind this assay is based upon the binding and displacement of an Alexa Fluor 647-labeled tracer to the kinase of interest. Binding of the tracer to the kinase is detected using an EU-labeled anti-tag antibody. Simultaneous binding of both the tracer and antibody to the kinase gives rise to a FRET-signal. Binding of an inhibitor to the kinase competes for binding with the tracer, resulting in a loss of FRET-signal.
(§3) Binding Assay Protocol for AXL, Mer, Tyro3 and Met
(§4) A given compound was diluted in DMSO to make a stock compound solution. The stock compound solution was serially diluted over eight steps in DMSO. Each diluted compound solution in DMSO was diluted in kinase buffer. Afterwards four kinds of working solution were prepared. First, Tracer-Working solution consists of Tracer 236 and Kinase Buffer. Second, Axl, Mer, Tyro3 or Met/anti-GST-AB-Working solution contained one of the kinases Axl, Mer, Tyro3, Met or anti-GST-AB (=anti glutathione-S-transferase antibody) in Kinase Buffer. Third, anti-GST-AB-Working solution was made with anti-GST-AB and Kinase Buffer. Last, in the DMSO-Working solution DMSO was added to Kinase Buffer to a final concentration to 3%. Each of the four kinds of working solutions were separately added to the assay plate and then incubated for 1 h at room temperature. After incubation, the assay plate was measured with respect to the FRET-Signal with the EnVision (Perkin Elmer) using the program LanthaHTRF-Assay. Data evaluation was done in the Quattro Workflow software.
(§5) Table 1 summarises the results obtained for AXL, Mer and Tyro3-kinases binding assays; table 2 summarises the results obtained for the Met kinase binding assay.
In general terms: In TR-FRET formats the signal depends on donor and acceptor labels being close together.

The target in a further assay is T2, TYRO3 (Homo sapiens, UniProt Q06418).
T2 construct: purchased Life Technologies
T2 sequence (Q06418 41-890): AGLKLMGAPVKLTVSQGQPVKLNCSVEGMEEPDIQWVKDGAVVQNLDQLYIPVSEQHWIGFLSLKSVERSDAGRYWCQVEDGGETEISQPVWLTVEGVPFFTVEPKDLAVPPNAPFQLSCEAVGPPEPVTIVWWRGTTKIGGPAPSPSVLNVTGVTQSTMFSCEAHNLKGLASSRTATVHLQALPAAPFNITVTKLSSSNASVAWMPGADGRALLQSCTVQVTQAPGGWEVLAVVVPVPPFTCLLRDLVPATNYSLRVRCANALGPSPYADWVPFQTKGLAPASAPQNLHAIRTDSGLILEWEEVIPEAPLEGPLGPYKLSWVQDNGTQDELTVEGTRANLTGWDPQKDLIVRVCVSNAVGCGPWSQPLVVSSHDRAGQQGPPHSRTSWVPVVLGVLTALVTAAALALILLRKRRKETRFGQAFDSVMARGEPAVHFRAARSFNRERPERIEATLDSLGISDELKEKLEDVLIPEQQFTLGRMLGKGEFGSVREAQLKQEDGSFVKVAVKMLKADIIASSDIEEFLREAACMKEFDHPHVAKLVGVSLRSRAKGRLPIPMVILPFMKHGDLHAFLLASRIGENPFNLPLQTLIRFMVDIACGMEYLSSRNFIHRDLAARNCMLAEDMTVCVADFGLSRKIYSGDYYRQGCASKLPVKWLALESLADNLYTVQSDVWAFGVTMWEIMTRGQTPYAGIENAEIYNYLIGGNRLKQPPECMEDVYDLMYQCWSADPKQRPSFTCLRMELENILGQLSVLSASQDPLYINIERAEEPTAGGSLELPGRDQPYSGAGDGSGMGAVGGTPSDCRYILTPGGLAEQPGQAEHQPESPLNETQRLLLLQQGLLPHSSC
As to the kind of experiment: LanthaScreen Eu kinase binding assay, TYRO3. The note with it: Tracer 236. The protocol:
as §1, §2, §3, §4, §5

The next assay deals with T3, Met (Homo sapiens, UniProt P08581).
T3 construct: purchased Life Technologies
Kind of assay: LanthaScreen Eu kinase binding assay, Met. As to conditions: Tracer 236, read-out: cMet kinase binding activity (Kd). As for the experimental part: as §1, §2, §3, §4, §5

A further assay deals with T4, Mer (Homo sapiens, UniProt Q12866).
T4 construct: purchased Life Technologies
T4 sequence (Q12866 21-999): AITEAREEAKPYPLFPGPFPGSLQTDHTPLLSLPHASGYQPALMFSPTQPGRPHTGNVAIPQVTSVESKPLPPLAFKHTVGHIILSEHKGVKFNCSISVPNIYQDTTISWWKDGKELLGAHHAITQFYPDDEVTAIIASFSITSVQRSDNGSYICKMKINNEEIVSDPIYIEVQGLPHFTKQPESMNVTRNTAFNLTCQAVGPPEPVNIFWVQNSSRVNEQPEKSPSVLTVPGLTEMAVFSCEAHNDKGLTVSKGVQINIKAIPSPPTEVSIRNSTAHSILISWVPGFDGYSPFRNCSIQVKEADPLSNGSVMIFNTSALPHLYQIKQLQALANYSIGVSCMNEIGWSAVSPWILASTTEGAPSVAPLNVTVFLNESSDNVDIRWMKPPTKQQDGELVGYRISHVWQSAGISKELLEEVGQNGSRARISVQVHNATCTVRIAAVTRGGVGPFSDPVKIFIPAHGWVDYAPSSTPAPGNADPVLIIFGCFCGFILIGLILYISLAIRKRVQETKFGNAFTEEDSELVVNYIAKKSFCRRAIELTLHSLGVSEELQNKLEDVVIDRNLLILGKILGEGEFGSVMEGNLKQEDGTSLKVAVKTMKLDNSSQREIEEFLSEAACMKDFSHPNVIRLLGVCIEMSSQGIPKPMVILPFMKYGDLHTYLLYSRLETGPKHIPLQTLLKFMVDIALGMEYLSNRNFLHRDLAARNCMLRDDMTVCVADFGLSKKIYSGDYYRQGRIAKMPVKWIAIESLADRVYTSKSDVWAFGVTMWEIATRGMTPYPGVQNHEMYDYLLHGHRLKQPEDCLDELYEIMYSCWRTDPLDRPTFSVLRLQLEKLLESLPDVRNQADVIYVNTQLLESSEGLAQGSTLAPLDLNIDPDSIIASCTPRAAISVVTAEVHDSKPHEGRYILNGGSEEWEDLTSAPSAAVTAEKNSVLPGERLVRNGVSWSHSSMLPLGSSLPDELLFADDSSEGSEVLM
As to the kind of experiment: LanthaScreen Eu kinase binding assay, Mer. The note with it: Tracer 236. As for the experimental part:
as §1, §2, §3, §4, §5

A value given as a limit tells only on which side of the number the result lay.

T3 sequence (P08581 25-1390): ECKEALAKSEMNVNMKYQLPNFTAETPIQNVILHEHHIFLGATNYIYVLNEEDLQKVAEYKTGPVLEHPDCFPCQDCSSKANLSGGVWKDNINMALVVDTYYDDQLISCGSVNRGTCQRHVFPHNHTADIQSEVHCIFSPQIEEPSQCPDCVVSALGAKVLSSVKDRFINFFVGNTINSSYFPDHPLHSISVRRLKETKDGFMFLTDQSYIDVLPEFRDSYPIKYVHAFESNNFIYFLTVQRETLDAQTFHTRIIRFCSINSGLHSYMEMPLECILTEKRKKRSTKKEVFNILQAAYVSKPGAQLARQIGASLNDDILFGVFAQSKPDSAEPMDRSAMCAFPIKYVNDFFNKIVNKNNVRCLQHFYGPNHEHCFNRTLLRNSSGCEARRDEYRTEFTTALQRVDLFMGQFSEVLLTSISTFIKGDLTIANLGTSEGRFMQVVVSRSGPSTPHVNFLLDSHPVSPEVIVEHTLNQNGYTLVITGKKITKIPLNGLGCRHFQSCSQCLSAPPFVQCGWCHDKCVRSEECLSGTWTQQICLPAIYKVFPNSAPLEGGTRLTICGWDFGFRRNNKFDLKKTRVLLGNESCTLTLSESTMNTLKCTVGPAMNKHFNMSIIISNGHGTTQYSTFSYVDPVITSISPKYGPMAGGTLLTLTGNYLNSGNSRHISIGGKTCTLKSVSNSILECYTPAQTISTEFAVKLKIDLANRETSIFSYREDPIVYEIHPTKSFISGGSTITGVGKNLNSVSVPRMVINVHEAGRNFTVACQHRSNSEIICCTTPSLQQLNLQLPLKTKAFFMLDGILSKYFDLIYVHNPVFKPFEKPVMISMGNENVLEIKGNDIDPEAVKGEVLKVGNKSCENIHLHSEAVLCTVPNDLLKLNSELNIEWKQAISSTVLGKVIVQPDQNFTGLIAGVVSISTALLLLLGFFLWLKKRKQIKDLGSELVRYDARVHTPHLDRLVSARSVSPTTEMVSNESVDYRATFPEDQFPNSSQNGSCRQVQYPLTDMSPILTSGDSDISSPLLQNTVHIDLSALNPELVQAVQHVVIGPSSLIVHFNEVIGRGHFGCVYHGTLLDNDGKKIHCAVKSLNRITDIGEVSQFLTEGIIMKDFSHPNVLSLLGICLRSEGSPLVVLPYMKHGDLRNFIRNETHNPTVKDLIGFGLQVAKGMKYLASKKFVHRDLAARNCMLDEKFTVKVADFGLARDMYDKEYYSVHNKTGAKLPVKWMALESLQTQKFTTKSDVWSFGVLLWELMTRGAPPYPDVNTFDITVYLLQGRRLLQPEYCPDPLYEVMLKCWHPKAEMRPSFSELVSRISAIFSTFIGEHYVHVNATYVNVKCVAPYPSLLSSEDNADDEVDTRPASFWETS

As usually defined, the Kd is the concentration at which binding is half-saturated. Regarding `CCOc1cn(-c2cncnc2C(C)C)nc1C(=O)Nc1ccc(Oc2ccnc3cc(OC)c(OC)cc23)cn1` [Compound 166], the Kd on Axl, at TYRO3, at Met and on Mer was less than 100 nM each time.

Turning to `CCOc1cn(CCO)nc1C(=O)Nc1ccc(Oc2ccnc3cc(OC)c(OC)cc23)cn1` [Compound 70], the Kd on Axl is 100 to 1000 nM; on TYRO3, 100 to 1000 nM; on Met, 100 to 1000 nM; at Mer, less than 100 nM.

With `CCOc1cnn(-c2ccc(C(C)(C)C)cc2)c1C(=O)Nc1ccc(Oc2ccnc3cc(OC)c(OC)cc23)cn1` [Compound 123], the Kd at Axl was 100 to 1000 nM; at TYRO3 it was no less than 1000 nM; on Met, 100 to 1000 nM; at Mer, 100 to 1000 nM.

As to `CCOc1cnn(CCN(C)C)c1C(=O)Nc1ccc(Oc2ccnc3cc(OC)c(OC)cc23)cn1` [Compound 52], the Kd at Axl, at TYRO3, on Met and at Mer was no less than 1000 nM throughout.

`CCOc1cn(-c2ncccc2CN(C)C)nc1C(=O)Nc1ccc(Oc2ccnc3cc(OC)c(OC)cc23)cn1` [Compound 142]: the Kd at Axl was 100 to 1000 nM; at TYRO3, 100 to 1000 nM; on Met, less than 100 nM; on Mer, less than 100 nM.

With `CCOc1cnn(-c2ccoc2)c1C(=O)Nc1ccc(Oc2ccnc3cc(OC)c(OC)cc23)cn1` [Compound 25], the Kd at Axl was 100 to 1000 nM; on TYRO3, no less than 1000 nM; at Met, no less than 1000 nM; at Mer, no less than 1000 nM.

With `CCOc1cn(-c2cnc(N)cn2)nc1C(=O)Nc1ccc(Oc2ccnc3cc(OC)c(OC)cc23)cn1` [Compound 136], the Kd at Axl, on TYRO3, at Met and on Mer was less than 100 nM throughout.

For `CCOc1cnn(CC2CCCN(C)C2)c1C(=O)Nc1ccc(Oc2ccnc3cc(OC)c(OC)cc23)cc1F` (stereo not drawn) [Compound 216], the Kd at Axl was 100 to 1000 nM; at TYRO3, no less than 1000 nM; at Met, 100 to 1000 nM; at Mer, 100 to 1000 nM.

For `CCOc1cn(-c2cnc(N)s2)nc1C(=O)Nc1ccc(Oc2ccnc3cc(OC)c(OC)cc23)cn1` [Compound 139], the Kd was less than 100 nM at Axl, 100 to 1000 nM at TYRO3, less than 100 nM on Met and less than 100 nM at Mer.

With `CCOc1cn(-c2cccnc2)nc1C(=O)Nc1ncc(Oc2ccnc3cc(OC)c(OC)cc23)cc1F` [Compound 154], the Kd is less than 100 nM at Axl, no less than 1000 nM at TYRO3, no less than 1000 nM at Met and less than 100 nM at Mer.

Turning to `COc1cc2nccc(Oc3ccc(NC(=O)c4nn(-c5ccc(F)cc5C)cc4OCCN(C)C)cc3F)c2cc1OC` [Compound 276], the Kd on Axl was less than 100 nM; at TYRO3, 100 to 1000 nM; at Met, less than 100 nM; on Mer, less than 100 nM.

In the case of `CCOc1cn(-c2cncnc2N2CCCC2)nc1C(=O)Nc1ccc(Oc2ccnc3cc(OC)c(OC)cc23)cn1` [Compound 180], the Kd on Axl is 100 to 1000 nM; at TYRO3, no less than 1000 nM; at Met it was no less than 1000 nM; on Mer, 100 to 1000 nM.

Consider `CCOc1cn(-c2ccc(F)cc2C)nc1C(=O)Nc1csc(Oc2ccnc3cc(OC)c(OC)cc23)n1` [Compound 122], for which the Kd at Axl, on TYRO3, on Met and at Mer was no less than 1000 nM in each case.

For the compound `CCOc1cn(-c2cnc(C#N)cn2)nc1C(=O)Nc1ccc(Oc2ccnc3cc(OC)c(OC)cc23)cn1` [Compound 54], the dissociation constant (Kd) on Axl, at TYRO3, on Met and at Mer was no less than 1000 nM in each case.

Turning to `CCOc1cn(-c2nccnc2F)nc1C(=O)Nc1ccc(Oc2ccnc3cc(OC)c(OC)cc23)cn1` [Compound 178], the Kd on Axl, on TYRO3, on Met and on Mer was less than 100 nM throughout.

The record behind these values is patent publication US10934274B2, “Quinoline derivatives as TAM RTK inhibitors” (Qurient Co., Ltd., priority 2015, dated 2021).
